# Literature values as cited in patent US8288437B2, “Salts, aqueous liquid compositions containing salts of abscisic acid analogs and methods of their preparation” (Valent BioSciences Corporation, priority 2008, dated 2012).
# Conditions: pure water at room temperature
compound,measurement,value
"CC1=CC(=O)CC(C)(C)[C@@]1(O)/C=C/C(C)=C\C(=O)O [(S)-(+)-abscisic acid, 2-cis-,4-trans-(S)-(+)-abscisic acid]",highest concentration that can be achieved in pure water,≤ 3000 ppm
